pEC50: −log10 of the molar value. Like-named read-outs stand apart in the source and are kept apart here.
Experiments:
[1] = molecular target: T1, F508del/F508del CFTR (Homo sapiens, UniProt P13569, DEL508-508); experiment: Trans-Epithelial Current Clamp (TECC) assay using primary human bronchial epithelial cells; type: cell-based; conditions: for Emax (% Dual): maximum percent activity relative to positive control (co-corrector 0.15 μM + potentiator 0.45 μM = 100%); for pEC50: primary hBE cells F508del/F508del, test corrector with co-corrector and potentiator, 18-24 hours, equivalent CFTR current
T1 construct: cells isolated from CF patients with the homozygous mutation; endogenous in cells; host or cells: primary human bronchial epithelial (hBE) cells from CF patients homozygous for F508del
T1 sequence (P13569 with tags, fused parts or gaps DEL508-508): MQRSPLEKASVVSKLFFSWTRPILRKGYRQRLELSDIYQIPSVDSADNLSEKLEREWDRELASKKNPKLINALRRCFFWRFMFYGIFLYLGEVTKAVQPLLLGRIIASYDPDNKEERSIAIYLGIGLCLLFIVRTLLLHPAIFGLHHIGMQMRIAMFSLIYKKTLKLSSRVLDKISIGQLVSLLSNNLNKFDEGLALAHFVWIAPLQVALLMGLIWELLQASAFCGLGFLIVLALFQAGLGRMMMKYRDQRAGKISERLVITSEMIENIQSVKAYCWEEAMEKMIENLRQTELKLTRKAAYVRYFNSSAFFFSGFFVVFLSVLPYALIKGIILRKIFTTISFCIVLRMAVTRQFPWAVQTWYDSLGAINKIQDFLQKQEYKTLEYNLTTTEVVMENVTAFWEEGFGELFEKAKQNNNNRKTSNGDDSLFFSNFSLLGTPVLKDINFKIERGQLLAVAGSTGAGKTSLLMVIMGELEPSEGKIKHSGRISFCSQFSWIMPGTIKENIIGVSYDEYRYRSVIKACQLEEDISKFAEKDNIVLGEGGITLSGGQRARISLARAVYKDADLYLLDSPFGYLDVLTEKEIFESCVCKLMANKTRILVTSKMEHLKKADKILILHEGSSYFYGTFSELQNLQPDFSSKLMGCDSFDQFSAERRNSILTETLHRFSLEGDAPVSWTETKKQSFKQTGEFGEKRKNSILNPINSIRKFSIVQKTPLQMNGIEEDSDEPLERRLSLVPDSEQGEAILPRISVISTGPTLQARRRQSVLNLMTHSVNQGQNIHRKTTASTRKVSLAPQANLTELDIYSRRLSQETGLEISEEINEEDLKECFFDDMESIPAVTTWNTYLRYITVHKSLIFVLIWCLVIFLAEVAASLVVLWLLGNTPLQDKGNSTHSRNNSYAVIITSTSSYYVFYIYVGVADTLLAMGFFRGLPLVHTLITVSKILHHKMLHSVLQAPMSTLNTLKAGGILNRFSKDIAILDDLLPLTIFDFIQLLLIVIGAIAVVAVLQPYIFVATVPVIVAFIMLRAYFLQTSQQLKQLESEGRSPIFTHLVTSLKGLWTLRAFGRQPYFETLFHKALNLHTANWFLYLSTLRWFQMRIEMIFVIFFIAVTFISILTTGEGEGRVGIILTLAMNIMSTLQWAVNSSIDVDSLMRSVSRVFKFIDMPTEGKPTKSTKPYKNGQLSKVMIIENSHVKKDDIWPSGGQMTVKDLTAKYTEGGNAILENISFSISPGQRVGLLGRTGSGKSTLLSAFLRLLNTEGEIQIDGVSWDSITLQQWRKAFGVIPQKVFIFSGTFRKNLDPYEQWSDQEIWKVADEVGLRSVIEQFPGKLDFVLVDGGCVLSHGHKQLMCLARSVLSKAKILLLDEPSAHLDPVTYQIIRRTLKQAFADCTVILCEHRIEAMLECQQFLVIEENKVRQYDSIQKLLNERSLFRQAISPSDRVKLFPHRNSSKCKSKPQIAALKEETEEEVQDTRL
Outline: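 Readout is the equivalent CFTR current (IEQ, from offset-corrected VT and RT) plus AUC from forskolin peak to bumetanide addition, recorded on TECC-24 at 36.5° C. Beforehand, homozygous F508del hBE cultures received correctors with co-corrector and potentiator basolaterally for 18-24 h at 37° C.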

[2] = molecular target: T2, F508delCFTR (Homo sapiens, UniProt P13569, DEL508-508); experiment: Cell Surface Expression-Horse Radish Peroxidase (CSE-HRP) assay in CFBE41o-F508delCFTR-HRP cells; type: cell-based; conditions: for pEC50: CFBE41o-F508delCFTR-HRP cells, 18-24 hours at 33° C.; for Emax / Maximum % activity (with co-corrector): normalized to on-plate positive control; for Emax: read-out: Maximum % activity (without co-corrector)
T2 construct: expressed in transfected cells; host or cells: CFBE41o- human lung derived epithelial cell line, doxycycline-induced expression
T2 sequence (P13569 with tags, fused parts or gaps DEL508-508): as above
Outline: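 Doxycycline (0.5 μg/mL) induced HRP-tagged F508delCFTR in CFBE41o- cells for 68-72 h at 37 °C; compounds ± co-corrector (2 μM) then ran 18-24 h at 33 °C, 8-point 3-fold series from 20 or 30 μM. After DPBS washes, surface HRP was read by luminol luminescence. Activity was normalised to the on-plate positive control versus DMSO, and EC50 was fitted by variable-slope sigmoid from triplicate plates.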

[3] = with co-corrector 2 μM, read-out: EC50 (with co-corrector)
[4] = without co-corrector, read-out: EC50 (without co-corrector)

| Emax (% Dual) [1] [% Dual] | pEC50 [1] | pEC50 [2, 3] | pEC50 [2, 4] | Emax ([2]; without co-corrector) [%] | Maximum % activity (with co-corrector) ([2]; with co-corrector 2 μM) [%] | Compound |
| --- | --- | --- | --- | --- | --- | --- |
| 264 | 7.70 | 5.79 | 5.64 | 756 |  | COc1ccc(C)cc1[C@@]1(C(=O)NS(=O)(=O)c2cccc3nc(C)ccc23)C[C@H](c2ccccc2)CO1 [Example 33, (2R,4R)-2-(2-methoxy-5-methylphenyl)-N-(2-methylquinoline-5-sulfonyl)-4-phenyloxolane-2-carboxamide] |
| 255 | 7.51 | 6.09 | 5.80 | 443 |  | COc1ccc(C)cc1[C@]1(C(=O)NS(=O)(=O)c2cccc3nc(C)ccc23)C[C@@H](c2ccccc2)CO1 [Example 36, (2S,4S)-2-(2-methoxy-5-methylphenyl)-N-(2-methylquinoline-5-sulfonyl)-4-phenyloxolane-2-carboxamide] |
| 305 | 7.42 | 5.49 | 5.44 | 217 | 573 | COc1ccc(C)cc1[C@]1(C(=O)NS(=O)(=O)c2cccc3nc(C)ccc23)C[C@H](c2ccccc2)CO1 [Example 37, (2S,4R)-2-(2-methoxy-5-methylphenyl)-N-(2-methylquinoline-5-sulfonyl)-4-phenyloxolane-2-carboxamide] |
| 244 | 7.85 | 6.48 | 6.01 | 679 |  | COc1ccccc1[C@H]1CO[C@@](C(=O)NS(=O)(=O)c2cccc3nc(C)ccc23)(c2cc(C)ccc2OC)C1 [Example 38, (2R,4S)-2-(2-methoxy-5-methylphenyl)-4-(2-methoxyphenyl)-N-(2-methylquinoline-5-sulfonyl)oxolane-2-carboxamide] |
| 239 | 7.58 | 6.70 | 6.33 | 470 |  | COc1ccccc1[C@@H]1CO[C@@](C(=O)NS(=O)(=O)c2cccc3nc(C)ccc23)(c2cc(C)ccc2OC)C1 [Example 39, (2R,4R)-2-(2-methoxy-5-methylphenyl)-4-(2-methoxyphenyl)-N-(2-methylquinoline-5-sulfonyl)oxolane-2-carboxamide] |
| 208 | 8.59 | 6.80 | 6.36 | 705 |  | COc1ccccc1[C@@H]1CO[C@@](C(=O)NS(=O)(=O)c2cccc3nc(N)ccc23)(c2cc(C)ccc2OC)C1 [Example 40, (2R,4R)—N-(2-aminoquinoline-5-sulfonyl)-2-(2-methoxy-5-methylphenyl)-4-(2-methoxyphenyl)oxolane-2-carboxamide] |
| 274 | 7.71 | 6.57 | 6.12 | 872 |  | COc1ccc(C)cc1[C@@]1(C(=O)NS(=O)(=O)c2cccc3nc(N)ccc23)C[C@H](c2ccccc2)CO1 [Example 41, (2R,4R)—N-(2-aminoquinoline-5-sulfonyl)-2-(2-methoxy-5-methylphenyl)-4-phenyloxolane-2-carboxamide] |
| 237 | 7.95 | 6.24 | 5.95 | 751 |  | COc1cccc([C@@H]2CO[C@@](C(=O)NS(=O)(=O)c3cccc4nc(C)ccc34)(c3cc(C)ccc3OC)C2)c1 [Example 42, (2R,4R)-2-(2-methoxy-5-methylphenyl)-4-(3-methoxyphenyl)-N-(2-methylquinoline-5-sulfonyl)oxolane-2-carboxamide] |
| 335 | 7.94 | 6.52 | 6.22 | 512 |  | COc1ccc([C@@H]2CO[C@@](C(=O)NS(=O)(=O)c3cccc4nc(C)ccc34)(c3cc(C)ccc3OC)C2)cc1 [Example 44, (2R,4R)-2-(2-methoxy-5-methylphenyl)-4-(4-methoxyphenyl)-N-(2-methylquinoline-5-sulfonyl)oxolane-2-carboxamide] |
| 229 | 7.44 | 6.36 | 6.21 | 386 | 911 | COc1ccc([C@H]2CO[C@@](C(=O)NS(=O)(=O)c3cccc4nc(C)ccc34)(c3cc(C)ccc3OC)C2)cc1 [Example 45, (2R,4S)-2-(2-methoxy-5-methylphenyl)-4-(4-methoxyphenyl)-N-(2-methylquinoline-5-sulfonyl)oxolane-2-carboxamide] |

From patent publication US20220211692A1, “Modulators of the Cystic Fibrosis Transmembrane Conductance Regulator Protein and Methods of Use” (AbbVie Global Enterprises Ltd., priority 2021, published 2022)
